Here are results for one compound from patent US4542153A, “Methods for changing calcium metabolism within the cells of a mammal” (The Ohio State University Research Foundation, priority 1983, dated 1985).

The term ED50 denotes the dose that gives a 50% effect, or the effect in half of the subjects. By LD50 is commonly meant the dose expected to kill half of the subjects tested. The low end stands for a more toxic substance, the high end for a less toxic substance. What is called IC50 is the concentration that inhibits the measured activity by half.

The test system of series [1] is calcium-induced arrhythmias in rats. The series is described as follows: Calcium-induced arrhythmias (CaCl2 injected i.v. into anesthetized rats). The text has this: The experimental method used was that described in Lynch J. J., Rahwan R. G., Witiak D. T.: Effects of 2-substituted-3-dimethylamino-5,6-methylenedioxyindenes on calcium-inducedarrhythmias, J. Cardiovasc. Pharmacol. 3: 49-60 (1981). Male Sprague-Dawley rats weighing 180-250 grams were anesthetized with sodium pentobarbital and a cannula was inserted into the left jugular vein for drug administration. Electrocardiograph equipment was connected to the rat and the lead II was continuously monitored. The compound under test, dissolved in 5% dextrose solution, was administered into the jugular vein of anesthetized rats over a 40 second period. Ten minutes after this treatment, an acute dose of 1 ml/kg of a 10% CaCl2.2H2 O solution was injected into the jugular vein over a period of 10 seconds. The arrhythmias resulting from the calcium administration were graded according to the following criteria: (a) initial change in heart rate following calcium administration; (b) incidences of sinoatrial block, atrioventricular block, ectopic beats, and ventricular flutter and fibrillation; (c) time required for reversion to control ECG; and (d) incidence of mortality.

Series [2] relates to chloroform anoxia arrhythmia in mice. The experiment in a line: Chloroform Anoxia Assay (chloroform-induced ventricular fibrillation). The format is in vivo, Female Swiss albino mice. The settings on record: for ED50: i.p., 10 min before chloroform, table: mean values and 95% confidence limits, 10 min. Here is the method:
The same four compounds were tested for their ability to protect mice from chloroform anoxia by the classical chloroform inhalation procedure described in Lawson J. W.: Antiarrhythmic activity of some isoquinoline derivatives determined by a rapid screening procedure in the mouse, J. Pharmacol. Exp. Ther. 160: 22-31, (1968). In this method, chloroform inhalation leading to respiratory arrest produces ventricular fibrillation. Female Swiss albino mice procured from Laboratory Supply Company, Indianapolis, Indiana, weighing 16-22 g, were pretreated intraperitoneally with the compound under test dissolved in a 5% dextrose solution 10 minutes before exposure to chloroform in a closed container containing chloroform-saturated cotton. The mice were removed from the chloroform atmosphere immediately after respiratory arrest and the electrocardiograph lead II monitored. The ED 50 and 95% confidence limits calculated for the anti-arrhythmic agents by the standard method of Litchfield and Wilcoxon.

For another series, the system named is mice. The experiment in a line: Toxicity Tests (intraperitoneal LD50). The class given is in vivo. The settings on record: i.p., table: mean values and 95% confidence limits.
A further series concerns isolated left atria. The experiment in a line: Effects on isolated guinea pig atria: electrically driven left atria. The format is cell-based. An excerpt: (§1) The effects of pr-MDI, bu-MDI and Q-bu-MDI on the mechanical and electrical behavior of isolated guinea pig atria were investigated by the method of H. Nawrath, J. Pharmacol. Exp. Ther., 16, 176-182 (1980). The compounds were investigated over the concentration range of 10^-8 to 3×10^-4 M.
(§2) English short-haired guinea pigs, supplied by Carr Animal Supply, of Powell, Ohio, weighing 300-600 g. were killed by a blow on the head and both atria of the animal were quickly dissected out and suspended in a water-jacketed organ bath containing Krebs-Henseleit solution through which a 95% oxygen/5% carbon dioxide mixture was bubbled at 32° C. The solution contained 6.92 g/l of sodium chloride, 0.35 g/l of potassium chloride, 0.29 g/l of magnesium […] heptahydrate, 0.3 g/l of calcium chloride dihydrate, 0.16 g/l of potassium dihydrogen phosphate, 2.1 g/l of sodium bicarbonate and 2.1 g/l of dextrose. The contractile force generated by the isolated artria was recorded isometrically under a 500 mg. preload using a Narco Biosystems force transducer connected to a physiograph DMP-4B recorder, both the transducer and the recorder being obtained from E & M Instrument Co. of Houston, Texas.
The isolated left atria were electrically driven by square wave impulses of 3 milliseconds duration at a frequency of 3 Hz. and a voltage of twice the threshold voltage, delivered by a Grass S9 stimulator obtained from Grass Instrument Co., of Quincy, Massachusetts. Two platinum electrodes were used for the stimulation, the anode being in direct contact with the atrial tissue while the cathode had the form of a ring suspended 2.5 centimeters above the anode. Before redetermination of the threshold voltage and generation of a predrug (control) frequency-force profile over the range of 1-5 Hz., an equilibriation time of one hour was allowed. The system was then re-equilibriated at 3 Hz. and twice the threshold voltage as before, then one cumulative dose-response curve of contractile force for one test compound was obtained, followed immediately by redetermination of the threshold voltage and the generation of a post-drug frequency-force profile.
A paired Student's t-test was used to compare predrug and postdrug threshold voltages for each left atrial preparations as well as to compare developed tension at each frequency in the profile of each left atrial preparation. P values of less than 0.05 were considered statistically significant.

In series [3] the test system is spontaneously beating right atria. The series is described as follows: Effects on isolated guinea pig atria: spontaneously beating right atria. The class given is cell-based.
Excerpt: as §1, §2
Spontaneously beating right atria were tested in a similar manner.

For series [4], the system named is thoracic aorta strips contracted with norepinephrine. The series is described as follows: Vasodilator activity: norepinephrine-contracted aortic strips. The class given is cell-based, male Sprague-Dawley rats. An excerpt:
(§3) Pr-MDI, bu-MDI, Q-bu-MDI and the compounds of Formulae IIIA, IIIB and IVA having the two R1 groups together forming a methylene group, each R3 a methyl group and R2 an n-propyl group or n-butyl group (the compounds of Formula III are hereinafter abbreviated as sat-pr-MDI and sat-bu-MDI respectively, reference being made where necessary to the cis isomer of Formula III A or the trans isomer of Formula III B while the compounds of Formula IV are similarly referred to as cis sat-Q-pr-MDI and cis sat-Q-bu-MDI) were tested for vasodilator activity by the method of R. F. Furchgott and S. Bhadrakom, J. P. Pharmacol. Ex. Ther., 108, 129-143 (1953).
(§4) The vasodilator activity tests were conducted on male Sprague-Dawley rats, obtained from Harlan Industries, Inc., Cumberland, Indiana. The rats, weight 250-300 g., were sacrified by cervical dislocation and a 2.5 cm. segment of the thoracic aorta was removed and rinshed in physiological buffer. Each aortic segment was cleaned of connective tissue and cut spirally two yield to strips, each 3 by 15 mm. Each strip was mounted isometrically under a tension of 1 g in a 10 ml. tissue bath thermostatically maintained at 37° C. and containing a normal physiological solution aerated with a 95% oxygen/5% carbon dioxide mixture. Forces generated by the strip were monitored using a Grass FT03 isometric transducer coupled to a Grass module 7D polygraph recorder, both the transducer and the recorder being obtained from Grass Instrument Co., of Quincy, Mass.
(§5) After the aortic tissue had been allowed to equilibriate for 1-1.5 hours in the normal physiologic solution, tissue contraction was induced by introducing either 10^-7 M norepinephrine or 40mM potassium chloride buffer to the tissue bath.
(§6) To avoid interference by loss of tension due to time dependent tissue fatigue, separate preliminary experiments were performed to determine the degree of tissue relaxation due to such fatigue and the value of the control tension generated by norepinephrine or potassium chloride prior to the addition of the test compounds was adjusted whenever the duration of the experiment was such that fatigue could be expected to cause more than a 6% loss of tension. […] All concentrations mentioned hereinafter represent the final concentration of the test compound after dilution in the tissue bath.
(§7) The figures of concentration against percent response data obtained from each aortic tissue were transformed to its appropriate probit value and IC50 values were then estimated using linear regression analysis. The normal physiological solution contained 6.9 g/l of sodium chloride, 0.35 g/l of potassium chloride, 0.11 g/l of magnesium chloride hexahydrate, 0.138 g/l of sodium dihydrogen phosphate, 2.1 g/l of sodium bicarbonate, 0.01 g/l of EDTA, 0.368 g/l of calcium chloride dihydrate and 2.0 g/l of dextrose. The high potassium buffers were obtained by substituting potassium chloride for sodium chloride on an equimolar basis to maintain tonicity.

For series [5], the system named is thoracic aorta strips contracted with potassium chloride. The experiment in a line: Vasodilator activity: potassium chloride-contracted aortic strips. The class given is cell-based, male Sprague-Dawley rats. To be noted: rat aorta contracted with 40 mM potassium chloride; read-out: IC50 (mean and range of SEM) KCl.
Excerpt: as §3, §4, §5, §6, §7

The conditions of series [6]: tested acutely and subchronically; earlier published work; cited from earlier work.

Turning to `CCCCC1=Cc2cc3c(cc2C1N(C)C)OCO3.Cl` (centres unmarked) [bu-MDI, 2-butyl-5-6methylenedioxyindene-1-dimethylammonium hydrochloride, reference compound], the “potency and safety against calcium-induced arrhythmia versus verapamil” value in series [1] (earlier work of applicants) was “more potent and safer then verapamil”. For the same compound, the “concentration effective against calcium-induced arrhythmias” value in series [1] (i.v., 10 min before CaCl2) is on record as 3.75 mg/kg. Further, the deleterious side effects result in series [1] (i.v., Q-bu-MDI at 0.5 mg/kg, pr-MDI and bu-MDI at 3.75 mg/kg) is “without deleterious side effects”. In addition, the “Therapeutic Index (LD50/ED50)” value in series [2] (ED50 from chloroform anoxia, LD50 i.p.) amounted to 4.2. Besides, the “potency against chloroform/anoxia-induced arrhythmia versus quinidine” value in series [2] (earlier work of applicants) is “more potent than quinidine”. Further, the ED50 was determined as 44 mg/kg in series [2] (n = 40, hydrochloride) and 44.0 mg/kg in series [2] (n = 40, listed as Bu--MDI, hydrochloride). For the same compound, the “Antiarrhythmic Potency” value in series [2] (quinidine = 1.00, chloroform anoxia) worked out at 1.52. Moreover, the LD50 with mice is 185 mg/kg. The “effect on frequency-force profile/relation of the stimulated left atrium” value with isolated left atria (3×10^-4 M) is “significant depression of the frequency-force profile”. In addition, the “effect on threshold voltage required to drive the atria” value in the series with isolated left atria (3×10^-4 M) was “significantly decreased the threshold voltage”. The “effect on contractile force of the electrically stimulated left atrium” value in the series with isolated left atria (10^-8 to 3×10^-4 M) is “considerably greater than that of Q-bu-MDI”. Also, the “time to sustained peak effect, right atria, highest concentrations” value in series [3] (10^-4 M and 3×10^-4 M) lay in the range of 5 to 10 min. The “effect on spontaneous atrial rate” value in series [3] (10^-8 to 3×10^-4 M) is reported as “substantially identical to that of Q-bu-MDI”. Moreover, the “effect on the contractile force of right atria” value in series [3] (except at 3×10^-4 M for Q-bu-MDI) is “much greater negative inotropy”. Also, in series [4] (norepinephrine- or KCl-treated tissue), the “relaxation of the aortic tissue” value is reported as “relaxed the aortic tissue”. Moreover, in series [4] (norepinephrine-treated aortic tissue), the “comparative vasodilator activity, norepinephrine-treated tissue” value is reported as “considerably more active than Q-bu-MDI”. The IC50 came out at 74.1 µM in series [4] (rat aorta contracted with 10^-7 M norepinephrine, read-out: IC50 (mean and range of SEM) Norepinephrine); 20.3 µM in series [5]. The toxicity result in series [6] is reported as “remarkable lack of toxicity”.
